Measured values published in patent US11912703B2, “6-azaindole compounds” (BRISTOL-MYERS SQUIBB COMPANY, priority 2017, dated 2024).
Read-outs that look alike come from different tables or passages of the source.

Tests used:
human TLR9 = human TLR9 (Homo sapiens (Human), UniProt Q9NR96); experiment: TLR9 inhibition reporter assay (HEK-Blue SEAP);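 also: SEAP driven by IFN-β minimal promoter carrying five NF-κB and AP-1 sites, 22 h at 37 °C, compounds 0.05 nM–50 µM, inhibition scaled between agonist-plus-DMSO and reference-inhibitor wells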
Procedure: HEK-Blue™-cells (Invivogen) overexpressing human TLR7, TLR8 or TLR9 receptors were used for screening inhibitors of these receptors using an inducible SEAP (secreted embryonic alkaline phosphatase) reporter gene under the control of the IFN-β minimal promoter fused to five NF-κB and AP-1-binding sites. Briefly, cells are seeded into Greiner 384 well plates (15000 cells per well for TLR7, 20,000 for TLR8 and 25,000 for TLR9) and then treated with test compounds in DMSO to yield a final dose response concentration range of 0.05 nM-50 μM. After a 30 minute compound pre-treatment at room temperature, the cells are then stimulated with a TLR7 ligand (gardiquimod at a final concentration of 7.5 μM), TLR8 ligand (R848 at a final concentration of 15.9 μM) or TLR9 ligand (ODN2006 at a final concentration of 5 nM) to activate NF-κB and AP-1 which induce the production of SEAP. After a 22 hour incubation at 37° C., 500 CO2, SEAP levels are determined with the addition of HEK-Blue™ Detection reagent (Invivogen), a cell culture medium that allows for detection of SEAP, according to manufacturer's specifications.

human TLR7 = human TLR7 (Homo sapiens (Human), UniProt Q9NYK1); experiment: TLR7 inhibition reporter assay (HEK-Blue SEAP); type: cell-based; settings: HEK-Blue cells overexpressing human TLR7, gardiquimod 7.5 μM stimulation
human TLR8 = human TLR8 (Homo sapiens (Human), UniProt Q9NR97); experiment: TLR8 inhibition reporter assay (HEK-Blue SEAP);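 also: SEAP driven by IFN-β minimal promoter with five NF-κB and AP-1 sites, compounds tested 0.05 nM to 50 µM, 22 h incubation, inhibition relative to agonist plus DMSO wells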
[1] = read-out: TLR9 IC50; HEK-Blue cells overexpressing human TLR9, ODN2006 5 nM stimulation, SEAP reporter
[2] = read-out: TLR8 IC50; HEK-Blue cells overexpressing human TLR8, R848 15.9 μM stimulation, SEAP reporter

Chain of human TLR9 (Q9NR96 26-1032): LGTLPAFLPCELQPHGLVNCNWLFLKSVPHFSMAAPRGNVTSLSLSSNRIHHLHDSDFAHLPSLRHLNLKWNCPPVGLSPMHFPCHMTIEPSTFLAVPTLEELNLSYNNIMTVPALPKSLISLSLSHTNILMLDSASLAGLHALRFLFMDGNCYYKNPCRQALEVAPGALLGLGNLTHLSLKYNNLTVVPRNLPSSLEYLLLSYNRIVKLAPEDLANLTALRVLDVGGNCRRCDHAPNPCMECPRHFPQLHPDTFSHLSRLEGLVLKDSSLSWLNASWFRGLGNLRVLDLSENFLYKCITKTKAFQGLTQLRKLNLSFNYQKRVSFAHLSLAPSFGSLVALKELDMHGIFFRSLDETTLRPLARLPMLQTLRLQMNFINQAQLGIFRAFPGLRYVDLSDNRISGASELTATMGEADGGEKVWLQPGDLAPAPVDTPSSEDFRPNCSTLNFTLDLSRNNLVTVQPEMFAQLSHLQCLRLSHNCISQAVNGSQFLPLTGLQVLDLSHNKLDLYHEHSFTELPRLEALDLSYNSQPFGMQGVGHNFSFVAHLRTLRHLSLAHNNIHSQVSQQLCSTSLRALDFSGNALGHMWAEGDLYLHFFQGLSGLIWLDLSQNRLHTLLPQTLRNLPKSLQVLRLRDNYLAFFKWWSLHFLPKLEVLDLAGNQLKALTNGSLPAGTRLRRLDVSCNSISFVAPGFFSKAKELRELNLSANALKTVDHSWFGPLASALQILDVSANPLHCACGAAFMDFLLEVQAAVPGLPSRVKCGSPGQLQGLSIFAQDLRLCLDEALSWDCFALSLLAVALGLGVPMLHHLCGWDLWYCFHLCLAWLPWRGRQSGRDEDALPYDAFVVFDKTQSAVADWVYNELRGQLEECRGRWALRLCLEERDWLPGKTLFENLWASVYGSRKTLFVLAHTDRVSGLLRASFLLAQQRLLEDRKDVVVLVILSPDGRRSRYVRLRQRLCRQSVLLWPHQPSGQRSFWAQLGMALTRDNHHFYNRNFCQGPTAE
Chain of human TLR7 (Q9NYK1 27-1049): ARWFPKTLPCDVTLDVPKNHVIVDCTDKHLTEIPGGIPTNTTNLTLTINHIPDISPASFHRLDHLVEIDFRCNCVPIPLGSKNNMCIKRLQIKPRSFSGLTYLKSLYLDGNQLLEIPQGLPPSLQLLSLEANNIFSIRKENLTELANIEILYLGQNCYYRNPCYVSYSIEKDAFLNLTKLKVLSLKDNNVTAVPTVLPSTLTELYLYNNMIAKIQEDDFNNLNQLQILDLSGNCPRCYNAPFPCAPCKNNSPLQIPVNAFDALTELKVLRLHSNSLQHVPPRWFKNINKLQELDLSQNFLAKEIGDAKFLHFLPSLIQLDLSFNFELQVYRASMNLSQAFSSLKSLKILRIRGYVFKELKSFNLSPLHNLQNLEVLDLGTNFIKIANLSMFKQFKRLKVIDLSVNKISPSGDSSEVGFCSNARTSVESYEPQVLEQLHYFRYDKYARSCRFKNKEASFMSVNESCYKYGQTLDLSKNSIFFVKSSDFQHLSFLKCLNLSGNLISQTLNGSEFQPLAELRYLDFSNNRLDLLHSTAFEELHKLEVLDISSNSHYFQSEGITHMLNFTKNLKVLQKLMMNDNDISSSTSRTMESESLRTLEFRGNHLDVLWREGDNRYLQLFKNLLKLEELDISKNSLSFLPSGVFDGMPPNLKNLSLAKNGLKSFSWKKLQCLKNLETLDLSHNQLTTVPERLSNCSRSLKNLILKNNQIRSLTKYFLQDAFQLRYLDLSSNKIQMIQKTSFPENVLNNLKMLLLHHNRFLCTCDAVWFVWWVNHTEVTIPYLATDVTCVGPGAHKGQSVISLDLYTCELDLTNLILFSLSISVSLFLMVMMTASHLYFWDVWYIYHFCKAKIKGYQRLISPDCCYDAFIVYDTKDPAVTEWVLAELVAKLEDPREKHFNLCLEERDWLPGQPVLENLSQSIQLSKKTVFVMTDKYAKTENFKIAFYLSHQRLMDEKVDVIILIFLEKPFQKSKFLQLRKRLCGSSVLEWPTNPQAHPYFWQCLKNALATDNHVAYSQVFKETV
Chain of human TLR8 (Q9NR97 27-1041): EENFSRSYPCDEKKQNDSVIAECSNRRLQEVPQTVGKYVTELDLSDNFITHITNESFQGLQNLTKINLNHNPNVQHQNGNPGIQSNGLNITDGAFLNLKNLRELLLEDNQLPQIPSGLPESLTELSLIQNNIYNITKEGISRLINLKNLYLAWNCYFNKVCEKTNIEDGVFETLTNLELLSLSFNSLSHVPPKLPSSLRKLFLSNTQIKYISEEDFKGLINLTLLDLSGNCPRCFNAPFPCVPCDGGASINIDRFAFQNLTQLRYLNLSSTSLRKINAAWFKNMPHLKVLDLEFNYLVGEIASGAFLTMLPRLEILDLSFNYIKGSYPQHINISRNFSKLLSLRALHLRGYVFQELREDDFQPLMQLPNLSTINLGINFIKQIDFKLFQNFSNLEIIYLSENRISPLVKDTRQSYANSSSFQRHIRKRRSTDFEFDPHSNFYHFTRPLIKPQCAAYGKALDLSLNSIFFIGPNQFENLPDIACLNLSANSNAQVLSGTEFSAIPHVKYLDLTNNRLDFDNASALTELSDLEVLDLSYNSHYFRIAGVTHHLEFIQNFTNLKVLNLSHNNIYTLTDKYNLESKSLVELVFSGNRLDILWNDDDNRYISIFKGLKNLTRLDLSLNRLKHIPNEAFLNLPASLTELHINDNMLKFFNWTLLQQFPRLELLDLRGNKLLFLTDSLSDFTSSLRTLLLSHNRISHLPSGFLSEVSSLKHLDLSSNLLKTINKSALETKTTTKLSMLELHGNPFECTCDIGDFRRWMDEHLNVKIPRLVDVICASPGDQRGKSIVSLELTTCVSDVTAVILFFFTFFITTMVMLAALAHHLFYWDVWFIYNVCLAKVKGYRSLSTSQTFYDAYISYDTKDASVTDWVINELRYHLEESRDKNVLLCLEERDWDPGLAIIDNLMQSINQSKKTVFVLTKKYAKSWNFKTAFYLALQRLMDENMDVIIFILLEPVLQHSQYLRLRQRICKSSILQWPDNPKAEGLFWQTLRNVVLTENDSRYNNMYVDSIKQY

| Structure (SMILES) | IC50 (human TLR9; [1]) [nM] | IC50 (human TLR7) [nM] | IC50 (human TLR8; [2]) [nM] | IC50 (human TLR9; read-out: TLR9 IC50; HEK-Blue cells overexpressing human TLR9; ODN2006 5 nM stimulation; SEAP reporter) [nM] | IC50 (human TLR8; read-out: TLR8 IC50; HEK-Blue cells overexpressing human TLR8; R848 15.9 μM stimulation; SEAP reporter) [nM] |
| --- | --- | --- | --- | --- | --- |
| Cc1c(-c2[nH]c3cnc(N4CCN(S(C)(=O)=O)CC4)c(F)c3c2C(C)C)cn2ncnc2c1C [Example 425] | > 50000 | 13 | 17 | – | – |
| COc1cc(-c2[nH]c3cnc(C4CCC(N(C)C5COC5)CC4)c(F)c3c2C(C)C)cn2ncnc12 (stereo not drawn) [Example 197] | 1570 | 0.3 | 0.44 | – | – |
| COc1cc(-c2[nH]c3cnc(N4CCNC[C@H]4C)c(F)c3c2C(C)C)cn2ncnc12 [compound 354] | 3430 | 1.6 | 9.9 | – | – |
| Cc1c(-c2[nH]c3cnc(C4CCC(N5CCC5)CC4)c(F)c3c2C(C)C)cn2ncnc2c1C (stereo not drawn) [Example 233] | – | 2.7 | – | 1160 | 3.6 |
| COc1cc(-c2[nH]c3cnc(N4CCN(C(=O)CN(C)C)C[C@H]4C)c(F)c3c2C(C)C)cn2ncnc12 [Example 439] | 11200 | 7.1 | 4.3 | – | – |
| Cc1cc(-c2[nH]c3cnc(C4CCNCC4)c(F)c3c2C(C)C)cn2ncnc12 [Example 184] | 1870 | 1.9 | 7.9 | – | – |
| COc1cc(-c2[nH]c3cnc(N4CCC(N(C)C5COC5)CC4)cc3c2C(C)C)cn2ncnc12 [Example 314] | 3700 | 4.3 | 1.5 | – | – |
| COc1cc(-c2[nH]c3cnc(N4CC5(C4)CN(C4CCN(C(C)C)CC4)C5)c(F)c3c2C(C)C)cn2ncnc12 [Example 377] | 1410 | 16 | 16 | – | – |
| COc1cc(-c2[nH]c3cnc(N4CCC(NCC(C)(C)C)CC4)c(C)c3c2C(C)C)cn2ncnc12 [Example 169] | 1730 | 0.36 | 0.33 | – | – |
| Cc1cc(-c2[nH]c3cnc(C4CCN(CC(F)(F)F)CC4)c(F)c3c2C(C)C)cn2ncnc12 [Example 41] | > 50000 | 36 | 158 | – | – |
| Cc1c(N2CCC(NC3CCOCC3)CC2)ncc2[nH]c(-c3cc(C)c4ncnn4c3)c(C(C)C)c12 [Example 265] | 1020 | 0.36 | 0.42 | – | – |
| CNC(=O)CN(C)C1CCC(c2cc3c(C(C)C)c(-c4cc(OC)c5ncnn5c4)[nH]c3cn2)CC1 (stereo not drawn) [Example 328] | 1390 | 11 | 60 | – | – |
| CCN1CC2(C1)CN(c1ncc3[nH]c(-c4cn5ncnc5c(C)c4C)c(C(C)C)c3c1F)C2 [Example 408] | 12400 | 16 | 61 | – | – |
| COc1cc(-c2[nH]c3cnc(N4CCC(N(C)CC(F)F)CC4)c(F)c3c2C(C)C)cn2ncnc12 [Example 189] | 30700 | 20 | 16 | – | – |
| COc1cc(-c2[nH]c3cnc(N4CCN(C(=O)CN5CCOCC5)C[C@H]4C)c(F)c3c2C(C)C)cn2ncnc12 [Example 438] | > 50000 | 25 | 13 | – | – |
| CNC1CCN(c2ncc3[nH]c(-c4cc(C)c5ncnn5c4)c(C(C)C)c3c2F)CC1 [Example 71] | 3610 | 0.41 | 0.65 | – | – |
| COc1cc(-c2[nH]c3cnc(N4CCN(CCS(C)(=O)=O)CC4)c(C)c3c2C(C)C)cn2ncnc12 [Example 186] | 26500 | 12 | 6.6 | – | – |
| COc1cc(-c2[nH]c3cnc(N4CCC(NCC(C)(C)O)CC4)c(F)c3c2C(C)C)cn2ncnc12 [Example 156] | 6430 | 0.79 | 0.26 | – | – |
| Cc1c(-c2[nH]c3cnc(N4CC5(CN(CC(C)C)C5)C4)c(F)c3c2C(C)C)cn2ncnc2c1C [Example 402] | 5970 | 30 | 4.4 | – | – |
| COc1cc(-c2[nH]c3cnc(N4CCC(N5CCC5)CC4)c(F)c3c2C(C)C)cn2ncnc12 [Example 253] | 2860 | 0.97 | 0.77 | – | – |
| Cc1cc(-c2[nH]c3cnc(C4CCN(CC(N)=O)CC4)c(F)c3c2C(C)C)cn2ncnc12 [Example 125] | 7030 | 3.1 | 6.5 | – | – |
| COc1cc(-c2[nH]c3cnc(N4CCN(CCS(C)(=O)=O)CC4)c(Cl)c3c2C(C)C)cn2ncnc12 [Example 294] | 7630 | 3 | 4.7 | – | – |
| Cc1cc(-c2[nH]c3cnc(C4CCN(CC(=O)N(C)C)CC4)cc3c2C(C)C)cn2ncnc12 [Example 299] | 356 | 2.9 | 25 | – | – |
| COc1ccc(-c2[nH]c3cnc(C4CCN(C5CCN(CC(C)C)CC5)CC4)cc3c2C)cc1OC [Example 9] | 26 | 551 | 8220 | – | – |
| COc1cc(-c2[nH]c3cnc(N4CCC(NCC(=O)N(C)C)CC4)cc3c2C(C)C)cn2ncnc12 [Example 333] | 1060 | 5.4 | 4.3 | – | – |
| Cc1c(-c2[nH]c3cnc(N4CCN(C5CCOCC5)CC4)c(C)c3c2C(C)C)cn2ncnc2c1C [Example 418] | 6010 | 19 | 2.2 | – | – |
| Cc1c(N2CCC(N(C)CCC#N)CC2)ncc2[nH]c(-c3cc(C)c4ncnn4c3)c(C(C)C)c12 [Example 280] | 2500 | 1.3 | 1.2 | – | – |

| Structure (SMILES) | IC50 (human TLR9; [1]) [nM] | IC50 (human TLR7) [nM] | IC50 (human TLR8; [2]) [nM] | IC50 (human TLR9; read-out: TLR9 IC50; HEK-Blue cells overexpressing human TLR9; ODN2006 5 nM stimulation; SEAP reporter) [nM] | IC50 (human TLR8; read-out: TLR8 IC50; HEK-Blue cells overexpressing human TLR8; R848 15.9 μM stimulation; SEAP reporter) [nM] |
| --- | --- | --- | --- | --- | --- |
| COc1cc(-c2[nH]c3cnc(N4CCC(NC(C)C(C)C)CC4)cc3c2C(C)C)cn2ncnc12 (stereo not drawn) [Example 313] | 2420 | 2.9 | 0.27 | – | – |
| COc1cc(-c2[nH]c3cnc(N4CCN(CC(N)=O)CC4)c(F)c3c2C(C)C)cn2ncnc12 [Example 358] | > 50000 | 3.6 | 3.8 | – | – |
| Cc1c(-c2[nH]c3cnc(C4CCC(NC5COC5)CC4)cc3c2C(C)C)cn2ncnc2c1C (stereo not drawn) [Example 346] | 750 | 3.3 | 14 | – | – |
| COc1cc(-c2[nH]c3cnc(N4CC5(CN(CC6CC6)C5)C4)c(F)c3c2C(C)C)cn2ncnc12 [Example 374] | 5470 | 6 | 39 | – | – |
| Cc1c(-c2[nH]c3cnc(C4CCC(NC5COC5)CC4)c(C)c3c2C(C)C)cn2ncnc2c1C (stereo not drawn) [Example 121] | 759 | 2.7 | 5.9 | – | – |
| COc1cc(-c2[nH]c3cnc(C4CCN(C(=O)CN(C)C)CC4)cc3c2C(C)C)cn2ncnc12 [Example 343] | 217 | 28 | 190 | – | – |
| COc1cc(-c2[nH]c3cnc(N4CCN(CC(F)(F)F)CC4)c(F)c3c2C(C)C)cn2ncnc12 [Example 366] | 16200 | 3.8 | 39 | – | – |
| COc1cc(-c2[nH]c3cnc(C4CCC(N5CCC5)CC4)c(F)c3c2C(C)C)cn2ncnc12 (stereo not drawn) [Example 46] | – | 0.98 | 1.6 | – | – |
| COc1cc(-c2[nH]c3cnc(C4CCC(N(C)C(C)C)C4)cc3c2C(C)C)cn2ncnc12 (stereo not drawn) [Example 63] | 2990 | – | – | – | – |
| COc1cc(-c2[nH]c3cnc(C4CCC(NC5(C)COC5)CC4)c(F)c3c2C(C)C)cn2ncnc12 (stereo not drawn) [Example 192] | 3140 | – | 3.9 | – | – |
| COc1cc(-c2[nH]c3cnc(N4CCN(CC(=O)N5CCOCC5)CC4)c(F)c3c2C(C)C)cn2ncnc12 [Example 363] | 43700 | – | 3.7 | – | – |
| Cc1cc(-c2[nH]c3cnc(C4CCNCC4)cc3c2C(C)C)cn2ncnc12 [Example 4, 6-(3-isopropyl-5-(piperidin-4-yl)-1h-pyrrolo[2,3-c]pyridin-2-yl)-8-methyl-[1,2,4]triazolo [1,5-a]pyridine] | 13100 | – | 973 | – | – |
| COc1cc(-c2[nH]c3cnc(N4CCN(CCS(C)(=O)=O)CC4)c(F)c3c2C(C)C)cn2ncnc12 [Example 362] | – | 4.9 | 4 | – | – |
| COc1cc(-c2[nH]c3cnc(C4CCC(NC5CCOCC5)CC4)c(F)c3c2C(C)C)cn2ncnc12 (stereo not drawn) [Example 160] | 1280 | – | – | – | – |
| COc1cc(-c2[nH]c3cnc(N4CCC(N(C)CC(C)(C)C)CC4)c(F)c3c2C(C)C)cn2ncnc12 [Example 47] | 2580 | – | 1.5 | – | – |
| COc1cc(-c2[nH]c3cnc(C4CCC(NCC(C)(C)OC)CC4)c(C)c3c2C(C)C)cn2ncnc12 (stereo not drawn) [Example 207] | 437 | – | 7.7 | – | – |
| COc1cc(-c2[nH]c3cnc(C4CCC(NC5(C)COC5)CC4)c(F)c3c2C(C)C)cn2ncnc12 (stereo not drawn) [Example 105] | 2250 | – | 0.59 | – | – |
| Cc1cc(-c2[nH]c3cnc(N4CCC(N(C)C(C)C)CC4)c(F)c3c2C(C)C)cn2ncnc12 [Example 68] | 5290 | – | – | – | – |
| COc1cc(-c2[nH]c3cnc(C4CCC(N5CC(OC)C5)CC4)c(C)c3c2C(C)C)cn2ncnc12 (stereo not drawn) [Example 180] | 664 | – | 9.6 | – | – |
| COc1cc(-c2[nH]c3cnc(C4CCC(NC5CCOCC5)CC4)c(F)c3c2C(C)C)cn2ncnc12 (stereo not drawn) [Example 194] | 575 | – | – | – | – |
| COc1cc(-c2[nH]c3cnc(C4CCC(N(C)C(C)C)C4)cc3c2C(C)C)cn2ncnc12 (stereo not drawn) [Example 145] | 506 | – | – | – | – |
| COc1cc(-c2[nH]c3cnc(C4CCC(N5CC(OC)C5)CC4)c(C)c3c2C(C)C)cn2ncnc12 (stereo not drawn) [Example 62] | 417 | – | 21 | – | – |
| COc1cc(-c2[nH]c3cnc(C4CCC(NCC(C)(C)O)CC4)c(F)c3c2C(C)C)cn2ncnc12 (stereo not drawn) [Example 74] | 694 | – | 0.77 | – | – |
| COc1cc(-c2[nH]c3cnc(C4CCC(NCC(C)(C)OC)CC4)c(C)c3c2C(C)C)cn2ncnc12 (stereo not drawn) [Example 206] | 260 | – | 13 | – | – |
| Cc1c(-c2[nH]c3cnc(C4CCN(CC(=O)N(C)C)CC4)c(F)c3c2C(C)C)cn2ncnc2c1C [Example 22] | – | 6.2 | 1.8 | – | – |
| COc1cc(-c2[nH]c3cnc(C4CCC(NCC(C)(C)O)CC4)c(F)c3c2C(C)C)cn2ncnc12 (stereo not drawn) [Example 195] | 577 | – | 3 | – | – |
